Experimental data published in patent US4654368A, “Tri-organotin silatrane derivatives and pesticidal compositions, fungicides or antifouling agents comprising said compounds as active ingredients” (Nitto Kasei Co., Ltd., priority 1984, dated 1987).

Legend:
[1] = system: Penicillium citrinum ATCC 9849; test: Test on fungicidal effect on fungi (agar medium diluting method); assay type: cell-based; settings: PDA, 27° C., cultivation period 4 days
Description: (§1) By an agar medium diluting method, the fungicidal activities of compounds Nos. 12, 17, 18, 23, 24, 26, 27 and 32 of the invention on fungi doing harm to industrial products and materials were examined.
(§2) A hypha piece, 5 mm in diameter, of each of the fungi indicated in Table 3 was inoculated in a potato dextrose agar medium (PDA) containing each of the above compounds, and cultivated at 27° C. After the lapse of a predetermined period, the growth state of the fungus was observed, and the minimum inhibitory concentration of the compound was determined.

[2] = system: Cladosporium herbarum TAMF 517; test: as above; assay type: cell-based; settings: PDA, 27° C., cultivation period 4 days
Description: as §1, §2

[3] = system: Aspergillus niger ATCC 6275; test: as above; assay type: cell-based; settings: PDA, 27° C., cultivation period 4 days
Description: as §1, §2

[4] = system: Caetomium globosum ATCC 6205; test: as above; assay type: cell-based; settings: PDA, 27° C., cultivation period 3 days (compound 18: 4 days)
Description: as §1, §2

[5] = system: carmine mites (Tetranychus telarius L.); test: Miticidal effect on carmine mites; assay type: in vivo; set-up: key: -: Hardly any injury was observed.; +: Some injury was observed.; ++: The same injury as in the non-treated area was noted; settings: 500 ppm active ingredient, spray plus soil, kidney beans, 8 days later
Description: Female imagoes of carmine mites were caused to live at a rate of 10 per leaf on bineless kidney beans (in the primary leaf stage) in pots 7 days after sowing, and kept in a constant temperature chamber at 25° C. Six days later, a chemical obtained by diluting a wettable powder of each of compounds Nos. 4-6, 9-13, 15, 16, 21, 22, 25, 28-30, 33, 34, 36, 37 and 38 with water to an active ingredient concentration of 500 ppm was sprayed at a rate of 10 ml per pot, and at the same time, 2 ml of the chemical was poured into the soil. Eight days later, injuries to the plants by the mites were examined.
The degree of injury is shown by -, + and ++ as follows: […]

[6] = system: tobacco cutworms (Prodenia litura Fabrficius); test: Test on insecticidal efficacy on tobacco cutworms; assay type: in vivo; settings: 500 ppm in artificial feed, 4th-instar larvae, 6 days; wettable powder of Formulation Example 5 (contains Fenitrothion)
Description: A wettable powder of each of compounds Nos. 3, 7, 8, 9, 11, 12, 13, 14, 17, 18 and 31 of the invention obtained in accordance with Formulation Example 5 was diluted with water to 200 times (corresponding to a concentration of 500 ppm). Two milliliters of the dilution was impregnated in 13 g of an artificial feed for tobacco cutworms, and the feed was put in a polyethylene cup having a diameter of 11 cm. Ten 4th-instar larvae of tobacco cutworms were released into the cup, and examined for mortality 6 days later. The above experiment was carried out through two replicates.

Plasmopara viticola = test: Test on fungicidal effect on downy mildew of grape; assay type: in vivo; settings: sprayed on grape seedlings
From the text: Sandy soil was filled in plastic pots, and seeds of grape (variety: Neomuscat) were sown, and grown for about 1 month in a greenhouse to obtain young seedlings of grape in the 2-3 leaf stage. A water dilution of an emulsifiable concentrate of a wettable powder of each of the test compounds was sprayed onto the leaves of these seedlings so that the chemical adhered fully to the surfaces of the leaves. After drying the chemical in air, a suspension of conidospores of a […] pathogen of grape (Plasmopara viticola) was inoculated in the seedling by spraying. The seedlings were placed for 2 days in a high humidity condition at 23° C., and subsequently cultivated for 14 days in a greenhouse kept at 20° to 25° C. to cause onset of the disease. Thereafter, the state of the disease was observed.
The degree of disease was calculated by the following method. The examined leaves were classified by indices of 0, 0.5, 1, 2 and 4 according to the degrees of appearance of lesions, and the degree of disease was calculated from the following equation.
0: No fungus colony or lesion was noted on the surface of the leaves.
The control index was calculated from the following equation. [formula]

[7] = system: marine animals and plants; test: Test on antifouling effects on marine animals and plants in the sea; assay type: in vivo; settings: antifouling paint on vinyl chloride plate, Owase Bay
Description: A ship bottom antifouling paint was prepared by adding 24 g of Rosin WW, 12 g of a vinyl copolymer, 4 g of tricresyl phosphate, 10 g of bentonite, 20 g of baryta, 20 g of red iron oxide, 35 g of xylene and 35 g of methyl isobutyl ketone to 40 g of each of compounds Nos. 2, 8, 14, 17, 20 and 32 of the invention and vigorously stirring the mixture at room temperature for 1 hour. The paint was coated on both surfaces of a rigid vinyl chloride resin plate, 17×9×0.3 cm in size, to a dry thickness of about 200 microns. The coated plate was submerged in the sea in Owase Bay, Mie Prefecture, Japan for 12 months, and its fouled state was regularly observed.
The symbols in the table show the following.

Culex pipiens = test: Test on insecticidal effect on Culex pipiens; assay type: in vivo; settings: 3.5 ppm, wettable powder of Formulation Example 5 (contains Fenitrothion); for Death rate: final-instar larvae, next day, 1440 min; for Emergence inhibition rate: when all larvae in non-treated area emerged
Description: A wettable powder of each of compounds Nos. 2, 7, 8, 11, 13, 14, 17, 18 and 31 obtained in accordance with Formulation Example 5 was diluted with water to 3.5 ppm. One hundred milliliters of the dilution was put in each of 180 ml. polyethylene cups and 20 final-instar larvae of Culex pipiens were released into the cup. On the next day, the larvae were examined for mortality.
Thereafter, feeds were added to the test areas, and when all larvae n the non-treated area emerged, the emergence inhibition rate was examined.
The death rate and the emergence inhibition rate were rated by three grades as follows: […]

Row | SMILES | Minimum inhibitory concentration [1] [ppm] | Minimum inhibitory concentration [2] [ppm] | Minimum inhibitory concentration [3] [ppm] | Minimum inhibitory concentration [4] [ppm] | Degree of injury [5] | Death rate [6] [%] | Control index (Plasmopara viticola; 12.5 ppm active ingredient) [%] | Control index (Plasmopara viticola; 50 ppm active ingredient) [%] | Control index (Plasmopara viticola; 200 ppm active ingredient) [%] | Fouled state, period of submerging 4 months [7] | Fouled state, period of submerging 8 months [7] | Fouled state, period of submerging 12 months [7] | Death rate (Culex pipiens) | Emergence inhibition rate (Culex pipiens)
1 | CCC[CH2][Sn]([CH2]CCC)([CH2]CCC)[S]CCC[Si]12OC(C)CN(CC(C)O1)CC(C)O2 (stereo not shown) [compound 12] | < 12.5 | < 12.5 | < 12.5 | < 12.5 | - | 100 | 100 | 100 | 100 |  |  |  |  | 
2 | CC[CH2][Sn]([CH2]CC)([CH2]CC)[S]CCC[Si]12OCCN(CCO1)CCO2 [compound 17] | < 2.5 | < 12.5 | < 2.5 | < 2.5 |  | 100 |  |  |  | .circle. | .circle. | .circle. | C (less than 10%) | A (90% or higher)
3 | CC[CH2][Sn]([CH2]CC)([CH2]CC)[S]CCC[Si]12OC(C)CN(CC(C)O1)CC(C)O2 (stereo not shown) [compound 18] | < 12.5 | < 12.5 | < 2.5 | < 12.5 |  | 100 |  |  |  |  |  |  | B (less than 90% to 10%) | A (90% or higher)
4 | CC[CH2][Sn]([CH2]CC)([CH2]CC)[S]CCC[Si]12OCCN(CC(CC)O1)CC(CC)O2 (stereo not shown) [compound 23] | < 2.5 | < 2.5 | < 2.5 | < 2.5 |  |  |  |  |  |  |  |  |  | 
5 | CCC[CH2][Sn]([CH2]CCC)([CH2]CCC)[S]CCC[Si]12OCCN(CCO1)CC(C)O2 (stereo not shown) [compound 24] | < 12.5 | < 12.5 | < 12.5 | < 12.5 |  |  |  |  |  |  |  |  |  | 
6 | CC(C)[CH2][Sn]([CH2]C(C)C)([CH2]C(C)C)[S]CCC[Si]12OCCN(CCO1)CCO2 [compound 26] | < 12.5 | < 12.5 | < 12.5 | < 12.5 |  |  |  |  |  |  |  |  |  | 
7 | CC(C)[CH2][Sn]([CH2]C(C)C)([CH2]C(C)C)[S]CCC[Si]12OC(C)CN(CC(C)O1)CC(C)O2 (stereo not shown) [compound 27] | < 12.5 | < 12.5 | < 12.5 | < 12.5 |  |  |  |  |  |  |  |  |  | 
8 | CCC1CN2CC(C)O[Si](CCC[S][Sn]([c]3ccccc3)([c]3ccccc3)[c]3ccccc3)(OC(C)C2)O1 (stereo not shown) [compound 32] | < 12.5 | < 12.5 | < 12.5 | < 12.5 |  |  |  |  |  | .circle. | .circle. | .circle. |  | 
